PMC6132687, “Stem cells are the most sensitive screening tool to identify toxicity of GATA4-targeted novel small-molecule compounds” (Archives of Toxicology, 2018)

What was measured:
Type in all cases: cell-based, human
hiPSCs [1] = experiment: High-content analysis of cell viability (MitoTracker) in hiPSCs; conditions: 24 h
Method: To study mitochondrial function using high-content analysis, the cells were plated and treated as in proliferation studies, except that MitoTracker Orange CMTMRos solution (400 nM) was added to the cells for the last 30 min at 37 °C. The accumulation of the MitoTracker probe used is dependent upon mitochondrial membrane potential allowing selective staining of active mitochondria. Following fixation and permeabilization, hiPSC-CMs were in addition stained with anti-α-actinin (Alexa Fluor 488) and DAPI. Cells were identified and hiPSC-CMs discriminated from non-myocytes as described above. MitoTracker intensity corresponding to active mitochondria was analysed in the perinuclear area defined by a 3-pixel ring or a 5-pixel ring around the nucleus in hiPSCs and hiPSC-CMs, respectively. The fluorescence intensity threshold was set manually in each experiment based on the assumption that 2% of control hiPSC-CMs and 5% of control hiPSCs were MitoTracker negative.

hiPSC-CMs = experiment: High-content analysis of proliferation (Ki67, BrdU, DNA) in hiPSC-CMs; conditions: 24 h; for average intensity of nuclear Ki67 staining / increase in the percentage of Ki67+ cells compared to DMSO: 30 µM
Method: (§1) For proliferation studies, the cells were exposed to the test compounds for 24 h and 10 µM BrdU was added to the culture medium for the last 1 h (hiPSCs) or 24 h (hiPSC-CMs) before fixation with 4% paraformaldehyde (PFA) for 15 min at room temperature (rt). The cells were then permeabilized with 0.1% Triton X-100 for 10 min and DNA was hydrolysed with 2 M hydrochloric acid for 30 min at rt followed by neutralization with 0.1 M sodium borate (pH 8.5) for 30 min. Non-specific binding sites were blocked with 4% FBS in phosphate-buffered saline (PBS) for 45 min at rt, whereafter the cells were incubated with anti-Ki67 (1:250) and anti-BrdU (1:250) antibodies for 60 min at rt. Cells were then washed 3 × 5 min with PBS and incubated with Alexa Fluor-conjugated secondary antibodies (1:200) and DAPI (5 µg/ml) for 45 min at rt. In hiPSC-CM cultures, staining with primary antibody against α-actinin (at 1:600) was additionally used to identify myocytes. The plates were imaged and analysed with CellInsight CX5 High Content Screening Platform (Thermo Scientific) using a 10× objective (Olympus UPlanFL N 10×/0.3). For quantification, the cells were first identified based on DAPI fluorescence, which defined the nuclear area for quantifications. In hiPSC-CM cultures, non-myocytes were excluded based on absence of α-actinin staining and nuclear area. The thresholds for α-actinin fluorescence intensity and nuclear area were set manually in each experiment to allow optimal exclusion of non-myocytes. In hiPSC-CMs cultures, the data were collected only from α-actinin positive cells. The thresholds for Ki67+ and BrdU+ cells were also set manually in each experiment as described previously (Mioulane et al. [2012]) to adjust for slight variation in staining intensity.

hiPSCs [2] = experiment: High-content analysis of proliferation (Ki67, BrdU, DNA) in hiPSCs; conditions: 24 h
Method: as §1

[3] = test system: caspase-3/7 activity in hiPSCs; experiment: High-content analysis of caspase-3/7 activation in hiPSCs; conditions: 4-h exposure
Method: To study caspase activation, the cells were exposed to the test compounds for 4 h and then incubated with 3–5 µM CellEvent™ Caspase-3/7 Green Detection Reagent solution in PBS with 5% FBS for 50 min and stained with Hoechst for 10 min at 37 °C. Cells were fixed with 4% PFA and scanned with CellInsight using the 10× objective, or alternatively, the staining solution was replaced with fresh 5% FBS in PBS followed by live cell imaging with CellInsight. Hoechst fluorescence was used to identify the cells and define the nuclear area. The intensity of green fluorescence within the nucleus was quantified as a measure of caspase 3/7 activity.

CCN(CC)c1ccc(NC(=O)c2c(C)noc2-c2cc(C)on2)cc1 [3i-1047]
effect on MitoTracker staining (hiPSCs [1]): did not affect MitoTracker staining | average intensity of nuclear Ki67 staining (hiPSC-CMs; hiPSC-CMs): substantial increases | increase in the percentage of Ki67+ cells compared to DMSO (hiPSC-CMs; hiPSC-CMs): 1.5 fold | average intensity of nuclear BrdU staining (hiPSC-CMs; hiPSC-CMs): no effect | average total intensity of DNA staining (hiPSC-CMs; hiPSC-CMs): neither 3i-1000 nor 3i-1047 caused significant changes | percentage of BrdU+ cells (hiPSC-CMs; hiPSC-CMs): no effect | percentage of cells with high total intensity of DNA staining (hiPSC-CMs; hiPSC-CMs): neither 3i-1000 nor 3i-1047 caused significant changes | corresponding average staining intensities (Ki67, BrdU, DNA) (hiPSCs [2]; 1 or 10 µM): no effect | percentage of BrdU+ cells (hiPSCs [2]; 1 or 10 µM): no effect | percentage of Ki67+ cells (hiPSCs [2]; 1 or 10 µM): no effect | percentage of high DNA cells (hiPSCs [2]; 1 or 10 µM): no effect | effect on caspase-3/7 activity [3]: no effect

CCN(CC)c1ccc(NC(=O)c2c(-c3ccccc3)noc2C)cc1 [3i-1000]
average MitoTracker intensity in the perinuclear area (hiPSCs [1]; 10 µM): reduced substantially | increase in the percentage of MitoTracker negative cells as compared to DMSO (hiPSCs [1]; 10 µM): 5.7 fold | reduction of hiPSC cell numbers (hiPSCs [1]; 10 µM): 98% | decrease in BrdU+ hiPSC-CMs as compared to DMSO (hiPSC-CMs; P = 0.233): 43% | average intensity of nuclear Ki67 staining (hiPSC-CMs; hiPSC-CMs): substantial increases | increase in the percentage of Ki67+ cells compared to DMSO (hiPSC-CMs; hiPSC-CMs): 1.7 fold | average intensity of nuclear BrdU staining (hiPSC-CMs; hiPSC-CMs): tendency for 3i-1000 to induce a decrease | average total intensity of DNA staining (hiPSC-CMs; hiPSC-CMs): neither 3i-1000 nor 3i-1047 caused significant changes | percentage of cells with high total intensity of DNA staining (hiPSC-CMs; hiPSC-CMs): neither 3i-1000 nor 3i-1047 caused significant changes | proportion of BrdU-positive cells (hiPSCs [2]; 1 µM): not at 1 µM | proportion of Ki67 positive cells (hiPSCs [2]; 1 µM): not at 1 µM | proportion of BrdU-positive cells (hiPSCs [2]; 10 µM): decreased | proportion of Ki67 positive cells (hiPSCs [2]; 10 µM): decreased | average intensity of nuclear BrdU staining (hiPSCs [2]): decreased average intensity | average intensity of nuclear Ki67 staining (hiPSCs [2]): decreased average intensity | cell numbers (hiPSCs [2]): significantly reduced | decrease in the average total intensity of DNA staining (hiPSCs [2]): 66% | decrease in cells with high total DNA staining intensity (G2 phase) (hiPSCs [2]; P = 0.062): 77% | increase in cells positive for the fluorescent caspase reporter ([3]; vs DMSO): 3.2 fold
